Laboratory results published in US11083725B2 (priority 2014, dated 2021).

Tested on: NHBE cells
Experiment: Biolog metabolic array: substrate use by NHBE cells with or without CA09 infection
Assay type: cell-based, human
[1] = Control (uninfected) NHBE cells
[2] = Virus (CA09-infected, MOI 1) NHBE cells
[3] = Virus: CA09-infected NHBE cells, MOI 1, Biolog PMM2

NCCCC(=O)O [g-Amino Butyric Acid]
590 nm absorbance normalized to zero hour (substrate use), 0 hr [1]: 1.00
590 nm absorbance normalized to zero hour (substrate use), 1 hr [1]: 1.25
590 nm absorbance normalized to zero hour (substrate use), 3 hr [1]: 1.42
590 nm absorbance normalized to zero hour (substrate use), 4 hr [1]: 1.47
590 nm absorbance normalized to zero hour (substrate use), 6 hr [1]: 3.94
590 nm absorbance normalized to zero hour (substrate use), 8 hr [1]: 1.09
590 nm absorbance normalized to zero hour (substrate use), 9 hr [1]: 2.20
590 nm absorbance normalized to zero hour (substrate use), 10 hr [1]: 1.13
590 nm absorbance normalized to zero hour (substrate use), 11 hr [1]: 2.55
Substrate use, 590 nm absorbance normalized to zero hour, 0 hr (Control (uninfected) NHBE cells, Biolog PMM2, 0 hr): 1.00
Substrate use, 590 nm absorbance normalized to zero hour, 1 hr (Control (uninfected) NHBE cells, Biolog PMM2, 1 hr): 1.25
Substrate use, 590 nm absorbance normalized to zero hour, 5 hr (Control (uninfected) NHBE cells, Biolog PMM2, 5 hr): 1.52
Substrate use, 590 nm absorbance normalized to zero hour, 7 hr (Control (uninfected) NHBE cells, Biolog PMM2, 7 hr): 1.05
590 nm absorbance normalized to zero hour (substrate use), 0 hr [2]: 1.00
590 nm absorbance normalized to zero hour (substrate use), 1 hr [2]: 1.68
590 nm absorbance normalized to zero hour (substrate use), 2 hr [2]: 2.39
590 nm absorbance normalized to zero hour (substrate use), 3 hr [2]: 2.83
590 nm absorbance normalized to zero hour (substrate use), 4 hr [2]: 2.96
590 nm absorbance normalized to zero hour (substrate use), 5 hr [2]: 3.40
590 nm absorbance normalized to zero hour (substrate use), 6 hr [2]: 3.56
590 nm absorbance normalized to zero hour (substrate use), 7 hr [2]: 3.70
590 nm absorbance normalized to zero hour (substrate use), 8 hr [2]: 3.84
590 nm absorbance normalized to zero hour (substrate use), 9 hr [2]: 3.99
590 nm absorbance normalized to zero hour (substrate use), 10 hr [2]: 3.94
590 nm absorbance normalized to zero hour (substrate use), 11 hr [2]: 3.74
590 nm absorbance normalized to zero hour (substrate use), 0 hr [3]: 1.00
590 nm absorbance normalized to zero hour (substrate use), 1 hr [3]: 1.68
590 nm absorbance normalized to zero hour (substrate use), 2 hr [3]: 2.39
590 nm absorbance normalized to zero hour (substrate use), 3 hr [3]: 2.83
590 nm absorbance normalized to zero hour (substrate use), 4 hr [3]: 2.96
590 nm absorbance normalized to zero hour (substrate use), 5 hr [3]: 3.40
590 nm absorbance normalized to zero hour (substrate use), 6 hr [3]: 3.56
590 nm absorbance normalized to zero hour (substrate use), 7 hr [3]: 3.70
590 nm absorbance normalized to zero hour (substrate use), 8 hr [3]: 3.84
590 nm absorbance normalized to zero hour (substrate use), 9 hr [3]: 3.99
590 nm absorbance normalized to zero hour (substrate use), 10 hr [3]: 3.94
590 nm absorbance normalized to zero hour (substrate use), 11 hr [3]: 3.74
